From a compilation of properties of binary mixtures (doi:10.1021/jp308139r)

Assay: xn = mol fraction of the nth substance listed
Settings: 101 kPa

C[NH+](C)C.O=S(=O)([N-]S(=O)(=O)C(F)(F)F)C(F)(F)F + CC1COC(=O)O1
Settings | electrical conductivity [S/m]
264.45 K, x2 = 0.701 | 0.519
273.15 K, x2 = 0.701 | 0.687
283.15 K, x2 = 0.701 | 1
293.15 K, x2 = 0.701 | 1.34
298.15 K, x1 = 0.0002 | 0.011
298.15 K, x1 = 0.0005 | 0.022
298.15 K, x1 = 0.002 | 0.066
298.15 K, x1 = 0.0055 | 0.155
298.15 K, x2 = 0.5091 | 1.41
298.15 K, x2 = 0.5632 | 1.5
298.15 K, x2 = 0.6802 | 1.66
298.15 K, x2 = 0.843 | 1.43
303.15 K, x2 = 0.701 | 1.74
313.15 K, x2 = 0.701 | 2.16
323.15 K, x2 = 0.701 | 2.61
333.15 K, x2 = 0.701 | 3.09
343.15 K, x2 = 0.701 | 3.59
353.15 K, x2 = 0.701 | 4.1

C[S+](C)C.O=S(=O)([N-]S(=O)(=O)C(F)(F)F)C(F)(F)F + CC1COC(=O)O1
Settings | electrical conductivity [S/m]
265.55 K, x2 = 0.76 | 0.468
276.95 K, x2 = 0.76 | 0.708
294.65 K, x2 = 0.76 | 1.18
298.15 K, x1 = 0.0001 | 0.009
298.15 K, x1 = 0.0003 | 0.023
298.15 K, x1 = 0.0053 | 0.177
298.15 K, x2 = 0.5156 | 1.07
298.15 K, x2 = 0.565 | 1.21
298.15 K, x2 = 0.6897 | 1.37
298.15 K, x2 = 0.7404 | 1.39
298.15 K, x2 = 0.8098 | 1.34
298.15 K, x2 = 0.8571 | 1.25
298.15 K, x2 = 0.9218 | 0.964
298.15 K, x2 = 0.9792 | 0.39
303.15 K, x2 = 0.76 | 1.44
313.15 K, x2 = 0.76 | 1.8
323.15 K, x2 = 0.76 | 2.16
343.15 K, x2 = 0.76 | 2.94
353.15 K, x2 = 0.76 | 3.34

C[NH+](C)C.O=S(=O)([N-]S(=O)(=O)C(F)(F)F)C(F)(F)F + CC#N
Settings | electrical conductivity [S/m]
265.55 K, x2 = 0.86 | 4.31
273.15 K, x2 = 0.86 | 4.81
283.15 K, x2 = 0.86 | 5.49
293.15 K, x2 = 0.86 | 6.17
298.15 K, x1 = 0.0001 | 0.022
298.15 K, x1 = 0.0004 | 0.273
298.15 K, x1 = 0.0008 | 0.438
298.15 K, x1 = 0.0021 | 0.755
298.15 K, x1 = 0.0083 | 1.81
298.15 K, x2 = 0.5587 | 3.69
298.15 K, x2 = 0.6 | 4.08
298.15 K, x2 = 0.72 | 5.54
298.15 K, x2 = 0.78 | 6.28
298.15 K, x2 = 0.84 | 6.76
298.15 K, x2 = 0.8901 | 6.73
298.15 K, x2 = 0.938 | 5.86
298.15 K, x2 = 0.9677 | 4.21
313.15 K, x2 = 0.86 | 7.54
323.15 K, x2 = 0.86 | 8.22
333.15 K, x2 = 0.86 | 8.88
343.15 K, x2 = 0.86 | 9.57
353.15 K, x2 = 0.86 | 10.2

C[S+](C)C.O=S(=O)([N-]S(=O)(=O)C(F)(F)F)C(F)(F)F + CC#N
Settings | electrical conductivity [S/m]
283.15 K, x2 = 0.87 | 4.66
293.45 K, x2 = 0.87 | 5.28
298.15 K, x1 = 0.0001 | 0.043
298.15 K, x1 = 0.0002 | 0.103
298.15 K, x1 = 0.0003 | 0.148
298.15 K, x1 = 0.0033 | 0.839
298.15 K, x1 = 0.0129 | 2.17
298.15 K, x2 = 0.4883 | 2
298.15 K, x2 = 0.56 | 2.74
298.15 K, x2 = 0.64 | 3.56
298.15 K, x2 = 0.72 | 4.44
298.15 K, x2 = 0.8 | 5.35
298.15 K, x2 = 0.86 | 5.74
298.15 K, x2 = 0.9497 | 4.59
303.25 K, x2 = 0.87 | 5.88
313.15 K, x2 = 0.87 | 6.45
333.15 K, x2 = 0.87 | 7.48
343.15 K, x2 = 0.87 | 8.05
353.15 K, x2 = 0.87 | 8.67

O=C1CCCO1 + C[NH+](C)C.O=S(=O)([N-]S(=O)(=O)C(F)(F)F)C(F)(F)F
x1 = 1
Settings | viscosity [mPa·s]
298.15 K | 1.74
303.15 K | 1.61
313.15 K | 1.39
323.15 K | 1.22
343.15 K | 0.96

C[NH+](C)C.O=S(=O)([N-]S(=O)(=O)C(F)(F)F)C(F)(F)F + O=C1CCCO1
Settings | electrical conductivity [S/m] | viscosity [mPa·s]
263.15 K, x2 = 0.74 | 0.948 | –
273.15 K, x2 = 0.74 | 1.19 | –
283.15 K, x2 = 0.74 | 1.61 | –
293.15 K, x2 = 0.74 | 2.01 | –
298.15 K, x1 = 0.0001 | 0.005 | –
298.15 K, x1 = 0.0003 | 0.027 | –
298.15 K, x1 = 0.0046 | 0.214 | –
298.15 K, x1 = 0.0188 | 0.613 | –
298.15 K, x2 = 0.5778 | 2.09 | –
298.15 K, x2 = 0.5976 | – | 6.89
298.15 K, x2 = 0.639 | 2.26 | –
298.15 K, x2 = 0.672 | – | 5.66
298.15 K, x2 = 0.6802 | 2.35 | –
298.15 K, x2 = 0.7426 | 2.44 | –
298.15 K, x2 = 0.7428 | – | 4.51
298.15 K, x2 = 0.8047 | 2.36 | –
298.15 K, x2 = 0.8088 | – | 3.5
298.15 K, x2 = 0.8692 | 2.06 | –
298.15 K, x2 = 0.8803 | – | 2.64
298.15 K, x2 = 0.9328 | 1.44 | –
303.15 K, x2 = 0.5976 | – | 5.87
303.15 K, x2 = 0.672 | – | 4.85
303.15 K, x2 = 0.74 | 2.49 | –
303.15 K, x2 = 0.7428 | – | 3.91
313.15 K, x2 = 0.5976 | – | 4.35
313.15 K, x2 = 0.74 | 2.97 | –
313.15 K, x2 = 0.7428 | – | 3.01
313.15 K, x2 = 0.8088 | – | 2.35
323.15 K, x2 = 0.5976 | – | 3.39
323.15 K, x2 = 0.672 | – | 2.84
323.15 K, x2 = 0.74 | 3.47 | –
323.15 K, x2 = 0.7428 | – | 2.29
323.15 K, x2 = 0.8088 | – | 1.91
323.15 K, x2 = 0.8803 | – | 1.49
333.15 K, x2 = 0.5976 | – | 2.74
333.15 K, x2 = 0.672 | – | 2.34
333.15 K, x2 = 0.8088 | – | 1.48
333.15 K, x2 = 0.8803 | – | 1.2
335.15 K, x2 = 0.74 | 4.11 | –
343.15 K, x2 = 0.5976 | – | 2.22
343.15 K, x2 = 0.672 | – | 1.9
343.15 K, x2 = 0.7428 | – | 1.45
343.15 K, x2 = 0.8088 | – | 1.17
343.45 K, x2 = 0.74 | 4.56 | –
353.15 K, x2 = 0.74 | 5.09 | –

C[S+](C)C.O=S(=O)([N-]S(=O)(=O)C(F)(F)F)C(F)(F)F + O=C1CCCO1
Settings | electrical conductivity [S/m]
264.75 K, x2 = 0.8 | 0.887
273.15 K, x2 = 0.8 | 1.11
283.85 K, x2 = 0.8 | 1.43
293.15 K, x2 = 0.8 | 1.75
298.15 K, x1 = 0.0001 | 0.011
298.15 K, x1 = 0.0002 | 0.015
298.15 K, x1 = 0.0003 | 0.025
298.15 K, x1 = 0.0005 | 0.038
298.15 K, x1 = 0.0008 | 0.052
298.15 K, x1 = 0.0047 | 0.226
298.15 K, x1 = 0.0187 | 0.583
298.15 K, x2 = 0.5398 | 1.35
298.15 K, x2 = 0.5798 | 1.49
298.15 K, x2 = 0.66 | 1.74
298.15 K, x2 = 0.72 | 1.9
298.15 K, x2 = 0.8 | 2.01
298.15 K, x2 = 0.8695 | 1.89
303.15 K, x2 = 0.8 | 2.11
313.15 K, x2 = 0.8 | 2.5
323.15 K, x2 = 0.8 | 2.9
333.15 K, x2 = 0.8 | 3.32
343.15 K, x2 = 0.8 | 3.74
353.15 K, x2 = 0.8 | 4.17
